Assay results taken from patent US9776979B2, “EBI2 modulators” (Sanford-Burnham Medical Research Institute, priority 2013, dated 2017).

target: EBI2 (Homo sapiens, UniProt P32249); assay: Cell-based luminescent assay (EBI2 modulation); conditions: cell-based luminescence; 7a,25-OHC final assay concentration 80 nM; 60 minutes incubation; read-out: IC50
Procedure, shortened: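 Cells plated overnight at 37° C, then exposed to compound at 4-5 uM final with 80 nM 7a,25-OHC agonist for 60 min at 37° C. Luminescence read after 60 min detection at 25° C in the dark; values normalized to neutral and stimulator controls and plate-pattern corrected.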

Sequence of EBI2 (P32249 whole entry): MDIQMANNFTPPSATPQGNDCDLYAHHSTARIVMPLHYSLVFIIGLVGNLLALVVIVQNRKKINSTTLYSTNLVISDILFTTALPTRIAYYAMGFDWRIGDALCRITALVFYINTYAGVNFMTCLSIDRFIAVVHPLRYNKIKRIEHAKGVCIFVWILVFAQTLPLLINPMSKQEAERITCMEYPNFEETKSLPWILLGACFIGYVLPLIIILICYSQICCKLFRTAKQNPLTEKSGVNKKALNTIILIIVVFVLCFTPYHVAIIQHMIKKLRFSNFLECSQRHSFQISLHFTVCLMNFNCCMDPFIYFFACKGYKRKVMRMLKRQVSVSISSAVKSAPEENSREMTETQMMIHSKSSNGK

IC50, 100 to 500 nM:
O=C(c1cc2cc(Cl)ccc2[nH]1)N1CCN(Cc2cc(C(F)(F)F)cc(C(F)(F)F)c2)CC1 [Compound C423, 4-{[3,5-bis(trifluoromethyl)phenyl]methyl}piperazinyl 5-chloroindol-2-yl ketone]
O=C(c1cc2cc(Cl)ccc2[nH]1)N1CCN(Cc2ccc(F)cc2C(F)(F)F)CC1 [Compound C426, 5-chloroindol-2-yl 4-{[4-fluoro-2-(trifluoromethyl)phenyl]methyl}piperazinyl ketone]
O=C(c1cc2cc(Cl)ccc2[nH]1)N1CCN(Cc2ccc(F)cc2F)CC1 [Compound C427, 4-[(2,4-difluorophenyl)methyl]piperazinyl 5-chloroindol-2-yl ketone]
O=C(c1cc2cc(Cl)ccc2[nH]1)N1CCN(Cc2ccc(Cl)cc2C(F)(F)F)CC1 [Compound C428, 5-chloroindol-2-yl 4-{[4-chloro-2-(trifluoromethyl)phenyl]methyl}piperazinyl ketone]
O=C(Nc1ccc(Cl)cc1)N1CCN(C(=O)c2cc3cc(Cl)ccc3[nH]2)CC1 [Compound C429, {4-[(5-chloroindol-2-yl)carbonyl]piperazinyl}-N-(4-chlorophenyl)carboxamide]
O=C(C=Cc1ccc2c(c1)OCO2)N1CCN(C(=O)c2ccc(C(F)(F)F)cc2)CC1 [Compound C430, 3-(2H-benzo[3,4-d]1,3-dioxolen-5-yl)-1-(4-{[4-(trifluoromethyl)phenyl]carbonyl}piperazinyl)prop-2-en-1-one]
O=C(c1cc2cc(Cl)ccc2[nH]1)N1CCN(c2ccc(F)cc2F)CC1 [Compound C434, 4-(2,4-difluorophenyl)piperazinyl 5-chloroindol-2-yl ketone]
O=C(C#Cc1ccc(Cl)cc1)N1CCN(Cc2ccc(F)cc2C(F)(F)F)CC1 [Compound C435, 3-(4-chlorophenyl)-1-(4-{[4-fluoro-2-(trifluoromethyl)phenyl]methyl}piperazinyl)prop-2-yn-1-one]
O=C(c1cc(Br)c[nH]1)N1CCN(C(c2ccccc2)c2ccccc2)CC1 [Compound C436, 4-(diphenylmethyl)piperazinyl 4-bromopyrrol-2-yl ketone]
O=C(C#Cc1ccc(Cl)c(Cl)c1)N1CCN(C(=O)c2ccc(F)cc2C(F)(F)F)CC1 [Compound C437, 3-(3,4-dichlorophenyl)-1-(4-{[4-fluoro-2-(trifluoromethyl)phenyl]carbonyl}piperazinyl)prop-2-yn-1-one]
O=C(/C=C/c1ccc(Cl)cc1F)N1CCN(S(=O)(=O)c2ccccc2)CC1 [Compound C439, (2E)-3-(4-chloro-2-fluorophenyl)-1-[4-(phenylsulfonyl)piperazinyl]prop-2-en-1-one]
O=C(c1cccc(B(O)O)c1)N1CCN(C(=O)c2cc3cc(Cl)ccc3[nH]2)CC1 [Compound C440, 3-(4-(5-chloro-1H-indole-2-carbonyl)piperazine-1-carbonyl)phenylboronic acid]
O=C(/C=C/c1cc(Br)ccc1F)N1CCN(C(c2ccccc2)c2ccccc2)CC1 [Compound C441, (2E)-1-[4-(diphenylmethyl)piperazinyl]-3-(5-bromo-2-fluorophenyl)prop-2-en-1-one]
Cc1ccccc1/C=C/C(=O)N1CCN(S(=O)(=O)c2ccc(Br)cc2)CC1 [Compound C442, (2E)-1-{4-[(4-bromophenyl)sulfonyl]piperazinyl}-3-(2-methylphenyl)prop-2-en-1-one]
O=C(c1cc2ccc(Cl)cc2[nH]1)N1CCN(C(=O)c2ccc(F)cc2C(F)(F)F)CC1 [Compound C447, 6-chloroindol-2-yl 4-{[4-fluoro-2-(trifluoromethyl)phenyl]carbonyl}piperazinyl ketone]
CC(C)(C)c1ccc(S(=O)(=O)N2CCN(C(=O)/C=C/c3ccc(Cl)cc3F)CC2)cc1 [Compound C448, (2E)-1-(4-{[4-(tert-butyl)phenyl]sulfonyl}piperazinyl)-3-(4-chloro-2-fluorophenyl)prop-2-en-1-one]
O=C(c1cc2cc(Cl)ccc2[nH]1)N1CCC(NC2CCCC2)CC1 [Compound C449, 5-chloroindol-2-yl 4-(cyclopentylamino)piperidyl ketone]
O=C(Nc1ccc(F)c(C(F)(F)F)c1)N1CCN(C(=O)c2cc3cc(Cl)ccc3[nH]2)CC1 [Compound C450, {4-[(5-chloroindol-2-yl)carbonyl]piperazinyl}-N-[4-fluoro-3-(trifluoromethyl)phenyl]carboxamide]
O=C(Nc1cccc(F)c1)N1CCN(C(=O)c2cc3cc(Cl)ccc3[nH]2)CC1 [Compound C451, {4-[(5-chloroindol-2-yl)carbonyl]piperazinyl}-N-(3-fluorophenyl)carboxamide]
O=C(c1cc2ccccc2o1)N1CCN(Cc2ccc3c(c2)OCO3)CC1 [Compound C452, 4-(2H-benzo[d]1,3-dioxolan-5-ylmethyl)piperazinyl benzo[d]furan-2-yl ketone]
Cc1ccc(/C=C/C(=O)N2CCN(C(c3ccccc3)c3ccccc3)CC2)cc1 [Compound C453, (2E)-1-[4-(diphenylmethyl)piperazinyl]-3-(4-methylphenyl)prop-2-en-1-one]
O=C(c1cc2cc(Cl)ccc2[nH]1)N1CCN(S(=O)(=O)c2ccc(-c3ccccc3)cc2)CC1 [Compound C454, 5-chloroindol-2-yl 4-[(4-phenylphenyl)sulfonyl]piperazinyl ketone]
O=C(/C=C/c1ccccc1F)N1CCN(S(=O)(=O)c2ccc(Br)cc2)CC1 [Compound C455, (2E)-1-{4-[(4-bromophenyl)sulfonyl]piperazinyl}-3-(2-fluorophenyl)prop-2-en-1-one]
O=C(Nc1ccc(C(F)(F)F)cc1)N1CCN(C(=O)c2cc3cc(Cl)ccc3[nH]2)CC1 [Compound C456, {4-[(5-chloroindol-2-yl)carbonyl]piperazinyl}-N-[4-(trifluoromethyl)phenyl]carboxamide]
O=C(C=Cc1ccc2c(c1)OCO2)N1CCN(C(=O)c2ccc(-c3nnn[nH]3)cc2)CC1 [Compound C457, 3-(2H-benzo[3,4-d]1,3-dioxolan-5-yl)-1-{4-[(4-(1H-1,2,3,4-tetraazol-5-yl)phenyl)carbonyl]piperazinyl}prop-2-en-1-one]
O=C(O)c1ccc(C(=O)N2CCN(C(=O)c3cc4cc(Cl)ccc4[nH]3)CC2)cc1 [Compound C460, 4-({4-[(5-chloroindol-2-yl)carbonyl]piperazinyl}carbonyl)benzoic acid]
O=C(C#Cc1ccc(F)cc1)N1CCN(Cc2ccc(Cl)cc2)CC1 [Compound C461, 1-{4-[(4-chlorophenyl)methyl]piperazinyl}-3-(4-fluorophenyl)prop-2-yn-1-one]
O=C(C=Cc1ccc2c(c1)OCO2)N1CCN(Cc2ccc(F)cc2)CC1 [Compound C463, 3-(2H-benzo[3,4-d]1,3-dioxolan-5-yl)-1-{4-[(4-fluorophenyl)methyl]piperazinyl}prop-2-en-1-one]
O=C(c1cnc2ccccc2c1)N1CCN(Cc2ccc(Cl)cc2)CC1 [Compound C464, 4-[(4-chlorophenyl)methyl]piperazinyl 3-quinolyl ketone]
